From patent US20020136785A1, “Ginseng berry extracts and pharmaceutical compositions from ginseng berry for the treatment of type 2 diabetes and obesity” (priority 2000, published 2002)

Tests used:
[1] = tested on: cultured bovine adrenal chromaffin cells; settings: cultured bovine adrenal chromaffin cells (Kudo et al., 1998); cited from earlier work
[2] = Odani et al., 1983; cited from earlier work
[3] = Karikura et al., 1991; cited from earlier work
[4] = target: T1, nuclear glucocorticoid receptor (Homo sapiens, UniProt P04150); settings: Lee et al., 1997; Chung et al., 1998; cited from earlier work
T1 sequence (P04150 1-777): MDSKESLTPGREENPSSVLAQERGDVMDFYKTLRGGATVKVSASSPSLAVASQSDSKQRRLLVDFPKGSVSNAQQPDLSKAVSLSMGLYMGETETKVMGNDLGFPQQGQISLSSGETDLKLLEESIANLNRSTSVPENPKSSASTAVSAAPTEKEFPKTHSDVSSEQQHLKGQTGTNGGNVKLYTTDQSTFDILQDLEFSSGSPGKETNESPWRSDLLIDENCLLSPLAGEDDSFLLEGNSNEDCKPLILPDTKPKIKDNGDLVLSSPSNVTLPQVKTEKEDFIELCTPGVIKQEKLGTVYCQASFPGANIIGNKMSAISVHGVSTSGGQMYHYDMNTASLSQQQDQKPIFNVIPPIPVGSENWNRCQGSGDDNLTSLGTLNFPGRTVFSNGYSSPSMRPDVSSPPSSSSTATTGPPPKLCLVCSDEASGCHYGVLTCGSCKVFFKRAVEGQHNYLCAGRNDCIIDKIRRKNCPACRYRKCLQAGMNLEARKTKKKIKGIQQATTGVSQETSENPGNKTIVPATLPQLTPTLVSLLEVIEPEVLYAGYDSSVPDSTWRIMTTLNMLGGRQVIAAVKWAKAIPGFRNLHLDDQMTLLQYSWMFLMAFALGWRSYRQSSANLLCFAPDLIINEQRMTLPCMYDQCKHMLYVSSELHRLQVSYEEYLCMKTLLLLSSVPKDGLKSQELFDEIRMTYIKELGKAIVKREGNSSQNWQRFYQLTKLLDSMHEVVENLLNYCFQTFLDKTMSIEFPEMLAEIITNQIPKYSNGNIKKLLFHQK

[5] = Hasegawa et al., 1995; cited from earlier work
B16-BL6 melanoma cells = B16-BL6 melanoma cells (Wakabayashi et al., 1998); cited from earlier work
albumin mRNA = settings: streptozotocin-induced diabetic rats (Yokozawa et al., 1996); cited from earlier work
[6] = tested on: hepatic tissue of streptozotocin-induced diabetic rats; settings: streptozotocin-induced diabetic rats (Yokozawa et al., 1991); cited from earlier work
[7] = tested on: streptozotocin-induced diabetic rats; settings: streptozotocin-induced diabetic rats (Yokozawa et al., 1985); cited from earlier work
[8] = Body weight of ob/ob mice; assay type: in vivo
Description: The average body weight of adult ob/ob or db/db mice is almost twice that of their lean littermates. Animals were treated with Panax ginseng berry extract, Panax quinquefolius berry extract, ginsenoside Re, or a polysaccharide fraction from Panax quinquefolius and the body weights were determined.

C57BL/6J ob/ob mice = test: Fasting blood glucose level in ob/ob mice; assay type: in vivo; settings: 20 mg/kg daily IP
Description: (§1) Male C57BL/6J ob/ob mice and their lean littermates (+/?) were obtained from Jackson Laboratory (Bar Harbor, Me.). In this obese, insulin-resistant mouse model, obesity is due to a mutation in the obese gene that encodes for leptin. […] The heterozygous mice are lean and normoglycemic. It is believed that the development of hyperglycemia in the ob/ob mouse is a consequence of epistatic interaction of the obesity mutation with diabetes-susceptibility genes. Adult animals at 10-18 weeks of age were used. Mice were housed in environmentally controlled conditions with a 12-h light/dark cycle and had free access to standard rodent pellet food, except when fasted before some experiments.
(§2) Animals were treated with Panax ginseng berry extract, Panax quinquefolius berry extract, ginsenoside Re or a polysaccharides fraction from Panax quinquefolius and the fasting blood glucose levels were measured. Fasting blood glucose levels were measured after animals were fasted for 4 hr (starting from 9:00AM), on Day 0 (before treatment), Day 5 (during treatment), and Day 12 (last day of treatment). Blood glucose levels were determined in tail blood samples at 1:00PM using a Glucose Analyzer (Hemocue AB, Angelholm, Sweden).

lean mice = test: Intraperitoneal glucose tolerance test (IPGTT) in lean mice; assay type: in vivo; settings: 20 mg/kg, 12 days
Description: (§3) Animals were treated with Panax ginseng berry extract, Panax quinquefolius berry extract, ginsenoside Re, or a polysaccharide fraction from Panax quinquefolius . IPGTT was performed on Day 0 and Day 12. On the days of the test, animals were fasted for 4 hr (starting from 9:00AM) followed by an IP administration of glucose (2 g/kg). Blood glucose levels were determined in tail blood samples at 0 (prior to glucose administration), and 30, 60 and 120 min after glucose administration.

[9] = tested on: lean littermates (+/?) of C57BL/6J ob/ob mice; test: Fasting blood glucose level in lean littermates of ob/ob mice; assay type: in vivo; settings: after treatment with ginsenoside Re
Description: as §1, §2

ob/ob mice = test: Intraperitoneal glucose tolerance test (IPGTT) in ob/ob mice; assay type: in vivo; settings: 20 mg/kg, 12 days, compared to vehicle-treated ob/ob mice
Description: as §3

CC(C)=CCC[C@@](C)(O)[C@H]1CC[C@]2(C)[C@@H]1[C@H](O)C[C@@H]1[C@@]3(C)CC[C@H](O)C(C)(C)[C@@H]3[C@@H](O[C@@H]3O[C@H](CO)[C@@H](O)[C@H](O)[C@H]3O[C@@H]3O[C@@H](C)[C@H](O)[C@@H](O)[C@H]3O)C[C@]12C [20(R) ginsenoside Rg2]
acetylcholine-evoked secretion of catecholamines [1]: inhibit

CC(C)=CCCC(C)(O)C1CCC2(C)C1C(O)CC1C3(C)CCC(O)C(C)(C)C3C(OC3OC(CO)C(O)C(O)C3OC3OC(C)C(O)C(O)C3O)CC12C [20(S) ginsenoside Rg2]
acetylcholine-evoked secretion of catecholamines [1]: inhibit
inhibitory effect compared with the other C-20 isomer [1]: greater inhibitory effect

CC(C)=CCC[C@](C)(O[C@@H]1O[C@H](CO[C@@H]2O[C@H](CO)[C@@H](O)[C@H](O)[C@H]2O)[C@@H](O)[C@H](O)[C@H]1O)[C@H]1CC[C@]2(C)[C@@H]1[C@H](O)C[C@@H]1[C@@]3(C)CC[C@H](O[C@@H]4O[C@H](CO)[C@@H](O)[C@H](O)[C@H]4O[C@@H]4O[C@H](CO)[C@@H](O)[C@H](O)[C@H]4O)C(C)(C)[C@@H]3CC[C@]12C [Rb1]
absorption after ingestion [2]: poorly absorbed
metabolism by intestinal flora [3]: hydrolyzed to compound K

CC(C)=CCC[C@](C)(O[C@@H]1O[C@H](CO)[C@@H](O)[C@H](O)[C@H]1O)[C@H]1CC[C@]2(C)[C@@H]1[C@H](O)C[C@@H]1[C@@]3(C)CC[C@H](O)C(C)(C)[C@@H]3[C@@H](O[C@@H]3O[C@H](CO)[C@@H](O)[C@H](O)[C@H]3O)C[C@]12C [Rg1]
absorption after ingestion [2]: poorly absorbed
ligand of the nuclear glucocorticoid receptor [4]: functional ligand

CC(C)=CCC[C@](C)(O[C@@H]1O[C@H](CO)[C@@H](O)[C@H](O)[C@H]1O)[C@H]1CC[C@]2(C)[C@@H]1[C@H](O)C[C@@H]1[C@@]3(C)CC[C@H](O)C(C)(C)[C@@H]3CC[C@]12C [compound K]
cytotoxicity of antineoplastic drugs [5]: increase the cytotoxicity
apoptosis (B16-BL6 melanoma cells): induce apoptosis

CC(C)=CCC[C@](C)(O[C@@H]1O[C@H](CO[C@@H]2OC[C@H](O)[C@H](O)[C@H]2O)[C@@H](O)[C@H](O)[C@H]1O)[C@H]1CC[C@]2(C)[C@@H]1[C@H](O)C[C@@H]1[C@@]3(C)CC[C@H](O[C@@H]4O[C@H](CO)[C@@H](O)[C@H](O)[C@H]4O[C@@H]4O[C@H](CO)[C@@H](O)[C@H](O)[C@H]4O)C(C)(C)[C@@H]3CC[C@]12C [ginsenoside Rb2]
albumin mRNA in the liver (albumin mRNA): increased albumin mRNA
ATP levels in hepatic tissue [6]: increased ATP levels
blood glucose levels [7]: significant decrease

CC(C)=CCC[C@](C)(O[C@@H]1O[C@H](CO)[C@@H](O)[C@H](O)[C@H]1O)[C@H]1CC[C@]2(C)[C@@H]1[C@H](O)C[C@@H]1[C@@]3(C)CC[C@H](O)C(C)(C)[C@@H]3[C@@H](O[C@@H]3O[C@H](CO)[C@@H](O)[C@H](O)[C@H]3O[C@@H]3O[C@@H](C)[C@H](O)[C@@H](O)[C@H]3O)C[C@]12C [ginsenoside Re]
body weight ([8]; 20 mg/kg group, Day 0): 53.1 ± 1.4 g
body weight ([8]; 20 mg/kg, Day 5): 52.9 ± 1.5 g
body weight ([8]; 20 mg/kg, Day 12): 54.7 ± 1.7 g
fasting blood glucose (C57BL/6J ob/ob mice; Day 5, 4 hr fast): 188 ± 9.2 mg/dL
fasting blood glucose (C57BL/6J ob/ob mice; Day 12, 4 hr fast): 180 ± 10.8 mg/dL
glucose tolerance, IPGTT (lean mice): not statistically affected
change of fasting blood glucose [9]: did not change sizably
blood glucose levels at 60 min and 120 min following glucose administration, IPGTT (ob/ob mice): significantly decreased
